# Measured values taken from ChEMBL document CHEMBL3272295, “Drugs derived from cannabinoids. 5. delta6a,10a-Tetrahydrocannabinol and heterocyclic analogs containing aromatic side chains” (J Med Chem, 1976).
# How the values were obtained:
# [1] = Acute toxicity in po dosed mouse; type: organism-based; conditions: in vivo
# Rattus norvegicus [2] = test: Antianxiety activity in Long-Evans rat assessed as reduction in motor activity at 5 mg/kg, po after 2 hrs relative to vehicle-treated control; type: functional; set-up: scale not given: the % may be the effect or the level left
# Rattus norvegicus [3] = test: Analgesic activity in po dosed Sprague-Dawley rat after 15 to 90 mins by tail flick test; type: functional
# Rattus norvegicus [4] = test: Antipsychotic activity in rat assessed as reduction of methamphetamine-induced hyperactivity at 5 mg/kg, po administered prior to methamphetamine challenge relative to vehicle-treated control; type: functional; set-up: scale not given: the % may be the effect or the level left
# Mus musculus [5] = test: Analgesic activity in mouse assessed as inhibition of acetic acid-induced writhing at 20 mg/kg, po administered 30 mins prior to acetic acid challenge measured after 5 mins for 20 mins; type: functional
# Rattus norvegicus [6] = test: Antipsychotic activity in rat assessed as reduction of methamphetamine-induced hyperactivity at 1 mg/kg, po administered prior to methamphetamine challenge relative to vehicle-treated control; type: functional; set-up: scale not given: the % may be the effect or the level left
# Rattus norvegicus [7] = test: Antianxiety activity in Long-Evans rat assessed as reduction in motor activity at 40 mg/kg, po after 2 hrs relative to vehicle-treated control; type: functional; set-up: scale not given: the % may be the effect or the level left
# Rattus norvegicus [8] = test: Antihypertensive activity in spontaneously hypertensive rat model assessed as reduction in blood pressure at 3 mg/kg, po after 3 hrs; type: functional; set-up: scale not given: the % may be the effect or the level left
# Rattus norvegicus [9] = test: Antianxiety activity in Long-Evans rat assessed as reduction in motor activity at 2 mg/kg, po after 2 hrs relative to vehicle-treated control; type: functional; set-up: scale not given: the % may be the effect or the level left
# Rattus norvegicus [10] = species on record: Rattus norvegicus; test: animal or person; type: functional; conditions: Charles River, route oral
# Description: Antidiarrheal activity in Charles River rat assessed as inhibition of castor oil-induced diarrhea by measuring protected animals at 0.5 mg/kg, po administered 1 hr prior to castor oil challenge measured after 1 hr relative to vehicle-treated control
# Mus musculus [11] = test: Antidepressant activity in po dosed mouse assessed as potentiation of DOPA-induced effect administered 4 hrs prior to DOPA challenge; type: functional; conditions: read-out: MED
# Rattus norvegicus [12] = test: Antihypertensive activity in spontaneously hypertensive rat model assessed as reduction in blood pressure at 1 mg/kg, po after 24 hrs; type: functional; set-up: scale not given: the % may be the effect or the level left
# Mus musculus [13] = test: Antianxiety activity in albino BALB/cJ mouse assessed as reduction in footshock-induced fighting behavior at 5 mg/kg, po after 30 to 90 mins; type: functional; set-up: scale not given: the % may be the effect or the level left
# Rattus norvegicus [14] = test: Analgesic activity in Sprague-Dawley rat assessed as increase in pain threshold at 10 mg/kg, po after 15 to 90 mins by tail flick test; type: functional
# Rattus norvegicus [15] = test: Antihypertensive activity in spontaneously hypertensive rat model assessed as reduction in blood pressure at 3 mg/kg, po after 24 hrs; type: functional; set-up: scale not given: the % may be the effect or the level left
# Mus musculus [16] = test: Analgesic activity in po dosed mouse assessed as inhibition of acetic acid-induced writhing administered 30 mins prior to acetic acid challenge measured after 5 mins for 20 mins; type: functional
# Rattus norvegicus [17] = test: Antihypertensive activity in spontaneously hypertensive rat model assessed as reduction in blood pressure at 1 mg/kg, po after 3 hrs; type: functional; set-up: scale not given: the % may be the effect or the level left
# Rattus norvegicus [18] = test: Analgesic activity in Sprague-Dawley rat assessed as increase in pain threshold at 60 mg/kg, po after 15 to 90 mins by tail flick test; type: functional
# Rhesus monkey = test: Antianxiety activity in po dosed rhesus monkey assessed as antiagressive behavior measured every hour post dosing; type: functional; conditions: Macaca mulatta, read-out: MED
# Rattus norvegicus [19] = test: Antiulcer activity in albino Sprague-Dawley rat stress ulcer model assessed as prevention of stress-induced gastric lesions at 5 mg/kg, po administered 30 mins prior to stress measured after 4 hrs relative to vehicle-treated control; type: functional, Stomach
# Rattus norvegicus [20] = test: Antiulcer activity in albino Sprague-Dawley rat stress ulcer model assessed as prevention of stress-induced gastric lesions by measuring ulcer index score at 10 mg/kg, po administered 30 mins prior to stress measured after 4 hrs; type: functional, Stomach
# Rattus norvegicus [21] = test: Antiulcer activity in albino Sprague-Dawley rat reserpine ulcer model assessed as prevention of reserpine-induced gastric lesions by measuring ulcer index scores at 10 mg/kg, po administered 30 mins prior to reserpine challenge measured after 6 hrs; type: functional, Stomach
# Rattus norvegicus [22] = test: Antisecretory activity in Sprague-Dawley rat assessed as decrease in pepsin output at 1 mg/kg, po administered 30 mins prior to pylorus ligation measured after 4 hrs relative to control; type: functional; set-up: scale not given: the % may be the effect or the level left
# Rattus norvegicus [23] = test: Increase in pepsin concentration in Sprague-Dawley rat at 2.5 mg/kg, po administered 30 mins prior to pylorus ligation measured after 4 hrs relative to control; type: functional
# Rattus norvegicus [24] = test: Antisecretory activity in Sprague-Dawley rat assessed as decrease in acidity at 5 mg/kg, po administered 30 mins prior to pylorus ligation measured after 4 hrs relative to control; type: functional; set-up: scale not given: the % may be the effect or the level left
# Rattus norvegicus [25] = test: Antiulcer activity in albino Sprague-Dawley rat reserpine ulcer model assessed as prevention of reserpine-induced gastric lesions by measuring ulcer index scores at 5 mg/kg, po administered 30 mins prior to reserpine challenge measured after 6 hrs; type: functional, Stomach
# Rattus norvegicus [26] = test: Antiulcer activity in albino Sprague-Dawley rat shay ulcer model assessed as ulcer index scores at 5 mg/kg administered intraduodenally post pyloric ligation measured after 18.5 hrs relative to vehicle-treated control; type: functional; conditions: route intraduodenal
# Rattus norvegicus [27] = test: Antisecretory activity in Sprague-Dawley rat assessed as decrease in pepsin output at 5 mg/kg, po administered 30 mins prior to pylorus ligation measured after 4 hrs relative to control; type: functional; set-up: scale not given: the % may be the effect or the level left
# Rattus norvegicus [28] = test: Antisecretory activity in Sprague-Dawley rat assessed as decrease in volume at 1 mg/kg, po administered 30 mins prior to pylorus ligation measured after 4 hrs relative to control; type: functional; set-up: scale not given: the % may be the effect or the level left
# Rattus norvegicus [29] = test: Antisecretory activity in Sprague-Dawley rat assessed as decrease in acid output at 2.5 mg/kg, po administered 30 mins prior to pylorus ligation measured after 4 hrs relative to control; type: functional; set-up: scale not given: the % may be the effect or the level left
# Rattus norvegicus [30] = test: Increase in pepsin concentration in Sprague-Dawley rat at 5 mg/kg, po administered 30 mins prior to pylorus ligation measured after 4 hrs relative to control; type: functional
# Rattus norvegicus [31] = test: Antisecretory activity in Sprague-Dawley rat assessed as decrease in acidity at 1 mg/kg, po administered 30 mins prior to pylorus ligation measured after 4 hrs relative to control; type: functional; set-up: scale not given: the % may be the effect or the level left
# Rattus norvegicus [32] = test: Antisecretory activity in Sprague-Dawley rat assessed as decrease in volume at 10 mg/kg, po administered 30 mins prior to pylorus ligation measured after 4 hrs relative to control; type: functional; set-up: scale not given: the % may be the effect or the level left
# Rattus norvegicus [33] = test: Increase in pepsin concentration in Sprague-Dawley rat at 1 mg/kg, po administered 30 mins prior to pylorus ligation measured after 4 hrs relative to control; type: functional
# Rattus norvegicus [34] = test: Antiulcer activity in albino Sprague-Dawley rat shay ulcer model assessed as ulcer index scores at 10 mg/kg administered intraduodenally post pyloric ligation measured after 18.5 hrs relative to vehicle-treated control; type: functional; conditions: route intraduodenal
# Rattus norvegicus [35] = test: Antisecretory activity in Sprague-Dawley rat assessed as decrease in volume at 2.5 mg/kg, po administered 30 mins prior to pylorus ligation measured after 4 hrs relative to control; type: functional; set-up: scale not given: the % may be the effect or the level left
# Rattus norvegicus [36] = test: Antisecretory activity in Sprague-Dawley rat assessed as decrease in volume at 5 mg/kg, po administered 30 mins prior to pylorus ligation measured after 4 hrs relative to control; type: functional; set-up: scale not given: the % may be the effect or the level left
# Rattus norvegicus [37] = test: Antisecretory activity in Sprague-Dawley rat assessed as decrease in acidity at 10 mg/kg, po administered 30 mins prior to pylorus ligation measured after 4 hrs relative to control; type: functional; set-up: scale not given: the % may be the effect or the level left
# Rattus norvegicus [38] = test: Antisecretory activity in Sprague-Dawley rat assessed as decrease in acid output at 5 mg/kg, po administered 30 mins prior to pylorus ligation measured after 4 hrs relative to control; type: functional; set-up: scale not given: the % may be the effect or the level left
# Rattus norvegicus [39] = test: Antisecretory activity in Sprague-Dawley rat assessed as decrease in pepsin output at 10 mg/kg, po administered 30 mins prior to pylorus ligation measured after 4 hrs relative to control; type: functional; set-up: scale not given: the % may be the effect or the level left
# Rattus norvegicus [40] = test: Increase in pepsin concentration in Sprague-Dawley rat at 10 mg/kg, po administered 30 mins prior to pylorus ligation measured after 4 hrs relative to control; type: functional
# Rattus norvegicus [41] = test: Antisecretory activity in Sprague-Dawley rat assessed as decrease in acid output at 10 mg/kg, po administered 30 mins prior to pylorus ligation measured after 4 hrs relative to control; type: functional; set-up: scale not given: the % may be the effect or the level left
# Rattus norvegicus [42] = test: Antisecretory activity in Sprague-Dawley rat assessed as decrease in pepsin output at 2.5 mg/kg, po administered 30 mins prior to pylorus ligation measured after 4 hrs relative to control; type: functional; set-up: scale not given: the % may be the effect or the level left
# Rattus norvegicus [43] = test: Antisecretory activity in Sprague-Dawley rat assessed as decrease in acid output at 1 mg/kg, po administered 30 mins prior to pylorus ligation measured after 4 hrs relative to control; type: functional; set-up: scale not given: the % may be the effect or the level left
# Rattus norvegicus [44] = test: Antisecretory activity in Sprague-Dawley rat assessed as decrease in acidity at 2.5 mg/kg, po administered 30 mins prior to pylorus ligation measured after 4 hrs relative to control; type: functional; set-up: scale not given: the % may be the effect or the level left
compound,measurement,setting,value
C#CCN1CCC2=C(C1)c1c(OC(C)=O)cc(C(C)CCCc3ccc(F)cc3)cc1OC2(C)C (configuration not stated),LD50,[1],≥ 1000 mg/kg
same,Activity,Rattus norvegicus [2],57%
same,ED50,Rattus norvegicus [3],1 mg/kg
same,Activity,Rattus norvegicus [4],66%
same,inhibition in vivo at 20 mg/kg,Mus musculus [5],27%
same,Activity,Rattus norvegicus [6],30%
same,Activity,Rattus norvegicus [7],90%
CC1CCC2=C(C1)c1c(O)cc(C(C)C(C)CCc3ccncc3)cc1OC2(C)C (configuration not stated),LD50,[1],≥ 1000 mg/kg
same,Activity,Rattus norvegicus [8],19%
same,Activity,Rattus norvegicus [9],28%
same,inhibition in vivo at 0.5 mg/kg,Rattus norvegicus [10],90%
same,minimal effective dose,Mus musculus [11],20 mg/kg
same,Activity,Rattus norvegicus [12],15%
same,Activity,Rattus norvegicus [2],42%
same,Activity,Rattus norvegicus [4],13%
same,Activity,Mus musculus [13],0%
same,Activity,Rattus norvegicus [14],58%
same,Activity,Rattus norvegicus [15],7%
same,ED50,Mus musculus [16],4.7 mg/kg
same,Activity,Rattus norvegicus [17],13%
CN1C(=O)CN=C(c2ccccc2)c2cc(Cl)ccc21 [DIAZEPAM],Activity,Rattus norvegicus [18],64%
same,Activity,Rattus norvegicus [2],15%
same,minimal effective dose,Rhesus monkey,1 mg/kg
same,Activity,Mus musculus [13],95%
same,Activity,Rattus norvegicus [7],60%
same,ED50,Mus musculus [16],4 mg/kg
Cl.NC(=S)Cc1ccccn1,UI,Rattus norvegicus [19],0.4
same,UI,Rattus norvegicus [20],0
same,UI,Rattus norvegicus [21],0
same,Activity,Rattus norvegicus [22],19%
same,Activity,Rattus norvegicus [23],43.1%
same,Activity,Rattus norvegicus [24],49.8%
same,UI,Rattus norvegicus [25],0.1
same,UI,Rattus norvegicus [26],3.3
same,Activity,Rattus norvegicus [27],31%
same,Activity,Rattus norvegicus [28],33.1%
same,Activity,Rattus norvegicus [29],47.3%
same,Activity,Rattus norvegicus [30],92.6%
same,Activity,Rattus norvegicus [31],3.8%
same,Activity,Rattus norvegicus [32],76.7%
same,Activity,Rattus norvegicus [33],29.3%
same,UI,Rattus norvegicus [34],0.7
same,Activity,Rattus norvegicus [35],35.8%
same,Activity,Rattus norvegicus [36],64%
same,Activity,Rattus norvegicus [37],86.3%
same,Activity,Rattus norvegicus [38],81.8%
same,Activity,Rattus norvegicus [39],58.9%
same,Activity,Rattus norvegicus [40],45.8%
same,Activity,Rattus norvegicus [41],95.5%
same,Activity,Rattus norvegicus [42],8.4%
same,Activity,Rattus norvegicus [43],35.5%
same,Activity,Rattus norvegicus [44],17.4%
